According to patent publication US12435059B2, “AMP-activated protein kinase inhibitors and methods of making and using the same” (The Regents of the University of Colorado, priority 2019, dated 2025):
Read-outs that look alike come from different tables or passages of the source.

Legend:
Assay in all cases: biochemical
Type in all cases: binding
468 kinases [1] = target: 468 kinases (Homo sapiens, UniProt Q16584); settings: MLK3; read-out: % Inhibition @ 100 nM
468 kinases [2] = target: 468 kinases (Homo sapiens, UniProt O00329); settings: PIK3CD; read-out: % Inhibition @ 100 nM
468 kinases [3] = target: 468 kinases (Homo sapiens, UniProt P06239); settings: LCK; read-out: % Inhibition @ 100 nM
468 kinases [4] = target: 468 kinases (Homo sapiens, UniProt Q9BYT3); settings: STK33; read-out: % Inhibition @ 100 nM
468 kinases [5] = target: 468 kinases (Homo sapiens, UniProt Q9UK32); settings: read-out: % Inhibition @ 100 nM
468 kinases [6] = target: 468 kinases (Homo sapiens, UniProt Q07002); settings: PCTK3; read-out: % Inhibition @ 100 nM
468 kinases [7] = target: 468 kinases (Homo sapiens, UniProt Q5S007); settings: LRRK2; read-out: % Inhibition @ 100 nM
468 kinases [8] = target: 468 kinases (Homo sapiens, UniProt Q9Y463); settings: DYRK1B; read-out: % Inhibition @ 100 nM
468 kinases [9] = target: 468 kinases (Homo sapiens, UniProt Q9HBH9); settings: MKNK2; read-out: % Inhibition @ 100 nM
468 kinases [10] = target: 468 kinases (Homo sapiens, UniProt P29597); settings: read-out: % Inhibition @ 100 nM
468 kinases [11] = target: 468 kinases (Homo sapiens, UniProt Q8TD08); settings: ERK8; read-out: % Inhibition @ 100 nM
468 kinases [12] = target: 468 kinases (Homo sapiens, UniProt Q8TF76); settings: HASPIN; read-out: % Inhibition @ 100 nM
468 kinases [13] = target: 468 kinases (Homo sapiens, UniProt Q13233); settings: MAP3K1; read-out: % Inhibition @ 100 nM
468 kinases [14] = target: 468 kinases (Homo sapiens, UniProt Q59H18); settings: TNNI3K; read-out: % Inhibition @ 100 nM
468 kinases [15] = target: 468 kinases (Homo sapiens, UniProt P54756); settings: EPHA5; read-out: % Inhibition @ 100 nM
468 kinases [16] = target: 468 kinases (Homo sapiens, UniProt P51955); settings: NEK2; read-out: % Inhibition @ 100 nM
468 kinases [17] = target: 468 kinases (Homo sapiens, UniProt O14578); settings: CIT; read-out: % Inhibition @ 100 nM
468 kinases [18] = target: 468 kinases (Homo sapiens, UniProt P78356); settings: PIP5K2B; read-out: % Inhibition @ 100 nM
468 kinases [19] = target: 468 kinases (Homo sapiens, UniProt O14976); settings: GAK; read-out: % Inhibition @ 100 nM
468 kinases [20] = target: 468 kinases (Homo sapiens, UniProt P22607, G697C); settings: FGFR3(G697C); read-out: % Inhibition @ 100 nM
468 kinases [21] = target: 468 kinases (Homo sapiens, UniProt P45984); settings: JNK2; read-out: % Inhibition @ 100 nM
468 kinases [22] = target: 468 kinases (Homo sapiens, UniProt Q02750); settings: MEK1; read-out: % Inhibition @ 100 nM
468 kinases [23] = target: 468 kinases (Homo sapiens, UniProt P27448); settings: MARK3; read-out: % Inhibition @ 100 nM
468 kinases [24] = target: 468 kinases (Homo sapiens, UniProt Q9BUB5); settings: MKNK1; read-out: % Inhibition @ 100 nM
468 kinases [25] = target: 468 kinases (Homo sapiens, UniProt O14936); settings: CASK; read-out: % Inhibition @ 100 nM
468 kinases [26] = target: 468 kinases (Homo sapiens, UniProt Q6DT37); settings: DMPK2; read-out: % Inhibition @ 100 nM
468 kinases [27] = target: 468 kinases (Homo sapiens, UniProt Q8N4C8); settings: MINK; read-out: % Inhibition @ 100 nM
468 kinases [28] = target: 468 kinases (Homo sapiens, UniProt P51812); settings: read-out: % Inhibition @ 100 nM
468 kinases [29] = target: 468 kinases (Homo sapiens, UniProt Q9BRS2); settings: RIOK1; read-out: % Inhibition @ 100 nM
468 kinases [30] = target: 468 kinases (Homo sapiens, UniProt Q13557); settings: CAMK2D; read-out: % Inhibition @ 100 nM
468 kinases [31] = target: 468 kinases (Homo sapiens, UniProt P36888, N841I); settings: FLT3(N841I); read-out: % Inhibition @ 100 nM
468 kinases [32] = target: 468 kinases (Homo sapiens, UniProt Q9UEE5); settings: DRAK1; read-out: % Inhibition @ 100 nM

Compound | inhibition at 0.1 µM (468 kinases [1]) | inhibition at 0.1 µM (468 kinases [2]) | inhibition at 0.1 µM (468 kinases [3]) | inhibition at 0.1 µM (468 kinases [4]) | inhibition at 0.1 µM (468 kinases [5]; RSK4(Kin.Dom.1-N-terminal)) | inhibition at 0.1 µM (468 kinases [5]; RSK4(Kin.Dom.2-C-terminal)) | inhibition at 0.1 µM (468 kinases [6]) | inhibition at 0.1 µM (468 kinases [7]) | inhibition at 0.1 µM (468 kinases [8]) | inhibition at 0.1 µM (468 kinases [9]) | inhibition at 0.1 µM (468 kinases [10]; TYK2(JH1domain-catalytic)) | inhibition at 0.1 µM (468 kinases [10]; TYK2(JH2domain-pseudokinase)) | inhibition at 0.1 µM (468 kinases [11]) | inhibition at 0.1 µM (468 kinases [12]) | inhibition at 0.1 µM (468 kinases [13]) | inhibition at 0.1 µM (468 kinases [14]) | inhibition at 0.1 µM (468 kinases [15]) | inhibition at 0.1 µM (468 kinases [16]) | inhibition at 0.1 µM (468 kinases [17]) | inhibition at 0.1 µM (468 kinases [18]) | also measured
CCN(CC)CCNC(=O)c1c(C)[nH]c(/C=C2\C(=O)Nc3ccc(CCC(N)=O)cc32)c1C [Compound No. 16, (Z)-5-((5-(3-Amino-3-oxopropyl)-2-oxoindolin-3-ylidene)methyl)-N-(2-(diethylamino)ethyl)-2,4-dimethyl-1H-pyrrole-3-carboxamide] | 0% | 24% | 16% | 78% | 70% | 22% | 9% | 94% | 0% | 52% | 33% | 39% | 25% | 68% | 36% | 5% | 9% | 5% | 0% | 86% | inhibition at 0.1 µM (468 kinases [19]): 35%; inhibition at 0.1 µM (468 kinases [20]): 12%; inhibition at 0.1 µM (468 kinases [21]): 32%; inhibition at 0.1 µM (468 kinases [22]): 56%; inhibition at 0.1 µM (468 kinases [23]): 0%; inhibition at 0.1 µM (468 kinases [24]): 31%; inhibition at 0.1 µM (468 kinases [25]): 34%; inhibition at 0.1 µM (468 kinases [26]): 20%; inhibition at 0.1 µM (468 kinases [27]): 81%; inhibition at 0.1 µM (468 kinases [28]; RSK2(Kin.Dom.1-N-terminal)): 59%; inhibition at 0.1 µM (468 kinases [29]): 87%; inhibition at 0.1 µM (468 kinases [30]): 4%; inhibition at 0.1 µM (468 kinases [31]): 85%; inhibition at 0.1 µM (468 kinases [32]): 78%
CCN(CC)CCNC(=O)c1c(C)[nH]c(/C=C2\C(=O)Nc3ccc(CCO)cc32)c1C [Compound No. 10, (Z)—N-(2-(Diethylamino)ethyl)-5-((5-(2-hydroxyethyl)-2-oxoindolin-3-ylidene)methyl)-2,4-dimethyl-1H-pyrrole-3-carboxamide] | 20% | 0% | 37% | 70% | 0% | 4% | 12% | 96.5% | 75% | 0% | 1% | 0% | 15% | 59% | 0% | 0% | 0% | 0% | 4% | 91.7% | inhibition at 0.1 µM (468 kinases [19]): 36%; inhibition at 0.1 µM (468 kinases [20]): 52%; inhibition at 0.1 µM (468 kinases [21]): 0%; inhibition at 0.1 µM (468 kinases [22]): 64%; inhibition at 0.1 µM (468 kinases [23]): 0%; inhibition at 0.1 µM (468 kinases [24]): 3%; inhibition at 0.1 µM (468 kinases [25]): 19%; inhibition at 0.1 µM (468 kinases [26]): 0%; inhibition at 0.1 µM (468 kinases [27]): 91.8%; inhibition at 0.1 µM (468 kinases [28]; RSK2(Kin.Dom.1-N-terminal)): 39%; inhibition at 0.1 µM (468 kinases [28]; RSK2(Kin.Dom.2-C-terminal)): 54%; inhibition at 0.1 µM (468 kinases [29]): 88%; inhibition at 0.1 µM (468 kinases [30]): 20%; inhibition at 0.1 µM (468 kinases [31]): 95.5%; inhibition at 0.1 µM (468 kinases [32]): 71%
